Assay results published in US20260347361A1, “LRRK2 INHIBITORS AND USES THEREOF” (NEURON23, INC, priority 2022, published 2026).

Biological target: T1, wt human LRRK2 (Homo sapiens, UniProt Q5S007)
T1 construct: wt human LRRK2, catalytic site, catalytic site (ThermoFisher/USA); purchased ThermoFisher
Assay: TR-FRET LanthaScreen Tb Kinase Activity Assay, inhibition of LRRK2 kinase
Assay type: biochemical
Settings: 2 nM wt human LRRK2, 400 nM fluorescein-ERM (LRRKtide) peptide, 38 µM ATP, 15 min pre-incubation, 120 min at room temperature
Experimental: In Table 2, activity is provided as the following: “+++”=IC50 less than 50 nM; “++”=IC50 between 50 nM and 200 nM; “+”=IC50> or =200 nM.
The compounds listed in Table 2 were tested for their inhibitory effect on LRRK2 kinase according to the following procedures.
The protocol for basic TR-FRET LanthaScreen Tb Kinase Activity Assay inhibitor studies were as follows. LanthaScreen Kinase Activity Assays (ThermoFisher/USA) to evaluate inhibitors were performed by addition of 100 nl of test compound in corresponding DMSO dilutions/5 μl of kinase/fluorescein-ERM(LRRKtide) peptide mixture, Compound & kinase were pre-incubated for 15 minutes, then 5 μl of ATP into 384 well small volume plates. After incubation for 120 minutes at room temperature, the detection reagents containing Tb-anti-pLRRKtide antibody were added to monitor phosphorylation level of peptide. Then, after 60 min minutes incubation at room temperature plates were read in Envision. Data analysis of emission ratios was according to LanthaScreen Tb Kinase Activity Assay protocol.
Kinase and assay components were adjusted to final concentrations according to the kit protocol. For LRRK2: 2 nM wt human LRRK2, catalytic site, catalytic site (ThermoFisher/USA), 400 nM peptide, 38 µM ATP in 1× Kinase Buffer A.
Basic protocol for TR-FRET LanthaScreen Tb Kinase Activity Assay inhibitor studies involved two steps:
Enzymatic step: Addition of […] of test compound in corresponding DMSO dilutions, 5 μL of kinase/substrate mixture, 5 μL of ATP into 384 well small volume plates. Incubation for 120 minutes at room temperature.
Detection step: Addition of 10 μL EDTA & antibody, read plate after 60 minutes. Data analysis of emission ratios according to KinEASE assay protocol.
Kinase and assay components were adjusted to final concentrations according to the kit protocol.

T1 sequence (Q5S007 970-2527 limits assumed): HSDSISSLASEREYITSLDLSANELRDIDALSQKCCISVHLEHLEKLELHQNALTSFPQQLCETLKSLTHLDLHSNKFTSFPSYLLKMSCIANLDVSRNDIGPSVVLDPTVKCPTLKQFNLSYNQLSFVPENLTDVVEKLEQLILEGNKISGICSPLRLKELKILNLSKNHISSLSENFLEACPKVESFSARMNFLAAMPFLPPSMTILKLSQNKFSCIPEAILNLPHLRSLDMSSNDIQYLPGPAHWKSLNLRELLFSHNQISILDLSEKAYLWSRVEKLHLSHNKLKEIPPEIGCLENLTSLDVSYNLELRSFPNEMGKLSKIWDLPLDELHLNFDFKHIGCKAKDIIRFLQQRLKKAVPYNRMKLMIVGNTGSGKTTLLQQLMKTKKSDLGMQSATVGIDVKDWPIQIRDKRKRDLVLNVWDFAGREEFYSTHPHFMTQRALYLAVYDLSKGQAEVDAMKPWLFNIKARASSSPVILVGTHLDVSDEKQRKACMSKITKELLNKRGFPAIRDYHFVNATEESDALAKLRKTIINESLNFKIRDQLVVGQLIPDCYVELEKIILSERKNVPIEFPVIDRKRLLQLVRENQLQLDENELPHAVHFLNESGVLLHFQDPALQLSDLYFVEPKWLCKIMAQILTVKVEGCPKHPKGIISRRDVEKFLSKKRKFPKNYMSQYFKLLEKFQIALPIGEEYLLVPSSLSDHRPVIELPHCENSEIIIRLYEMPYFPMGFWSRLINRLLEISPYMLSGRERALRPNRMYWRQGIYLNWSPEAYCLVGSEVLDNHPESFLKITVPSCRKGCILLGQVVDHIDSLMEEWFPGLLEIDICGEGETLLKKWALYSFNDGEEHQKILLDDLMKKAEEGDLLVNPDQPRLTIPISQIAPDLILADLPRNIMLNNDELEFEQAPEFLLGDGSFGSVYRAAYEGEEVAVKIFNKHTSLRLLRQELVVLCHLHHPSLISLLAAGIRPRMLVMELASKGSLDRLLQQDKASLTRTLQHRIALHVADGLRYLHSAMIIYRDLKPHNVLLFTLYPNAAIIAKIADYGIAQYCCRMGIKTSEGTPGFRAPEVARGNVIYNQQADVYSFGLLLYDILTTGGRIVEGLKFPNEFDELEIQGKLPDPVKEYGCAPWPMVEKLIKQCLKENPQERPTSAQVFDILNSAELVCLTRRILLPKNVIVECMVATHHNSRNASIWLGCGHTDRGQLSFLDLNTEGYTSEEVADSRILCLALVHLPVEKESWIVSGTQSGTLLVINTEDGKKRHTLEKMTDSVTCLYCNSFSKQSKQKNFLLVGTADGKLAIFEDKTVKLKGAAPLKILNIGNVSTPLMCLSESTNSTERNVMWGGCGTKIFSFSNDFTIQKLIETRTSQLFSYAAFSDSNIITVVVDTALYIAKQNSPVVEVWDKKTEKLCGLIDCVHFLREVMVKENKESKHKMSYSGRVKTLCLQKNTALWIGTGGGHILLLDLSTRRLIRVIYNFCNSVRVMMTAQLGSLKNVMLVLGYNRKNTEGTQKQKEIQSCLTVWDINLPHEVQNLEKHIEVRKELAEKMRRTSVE

| IC50 | SMILES |
| --- | --- |
| < 50 nM | O=C(NC1CCC1)c1ccc2c(c1)-n1ncc(Cl)c1N=C(c1c(F)cccc1F)N2 [3-chloro-N-cyclobutyl-5-(2,6-difluorophenyl)-6H-pyrazolo[1,5-a][1,3,5]benzotriazepine-9-carboxamide] |
| < 50 nM | O=C(NC1CCCC1)c1ccc2c(c1)-n1ncc(Cl)c1N=C(c1c(F)cccc1F)N2 [3-chloro-N-cyclopentyl-5-(2,6-difluorophenyl)-6H-pyrazolo[1,5-a][1,3,5]benzotriazepine-9-carboxamide] |
| < 50 nM | Fc1cccc(F)c1C1=Nc2c(Cl)cnn2-c2cc(N3CCOCC3)ncc2N1 [4-(3-Chloro-5-(2,6-difluorophenyl)-6H-pyrazolo[1,5-a]pyrido[3,4-f][1,3,5]triazepin-9-yl)morpholine] |
| < 50 nM | Fc1cccc(F)c1C1=Nc2c(Br)cnn2-c2cc(N3CCOCC3)ncc2N1 [4-(3-bromo-5-(2,6-difluorophenyl)-6H-pyrazolo[1,5-a]pyrido[3,4-f][1,3,5]triazepin-9-yl)morpholine] |
| < 50 nM | Fc1cc(F)c(C2=Nc3c(Cl)cnn3-c3cc(N4CCOCC4)ncc3N2)c(F)c1 [4-(3-chloro-5-(2,4,6-trifluorophenyl)-6H-pyrazolo[1,5-a]pyrido[3,4-f][1,3,5]triazepin-9-yl)morpholine] |
| < 50 nM | Fc1cccc(Cl)c1C1=Nc2c(Cl)cnn2-c2cc(N3CCOCC3)ncc2N1 [4-(3-chloro-5-(2-chloro-6-fluorophenyl)-6H-pyrazolo[1,5-a]pyrido[3,4-f][1,3,5]triazepin-9-yl)morpholine] |
| < 50 nM | Fc1cccc(F)c1C1=Nc2c(F)cnn2-c2cc(N3CCOCC3)ncc2N1 [4-(5-(2,6-difluorophenyl)-3-fluoro-6H-pyrazolo[1,5-a]pyrido[3,4-f][1,3,5]triazepin-9-yl)morpholine] |
| < 50 nM | Cc1cnn2c1N=C(c1c(F)cccc1F)Nc1cnc(N3CCOCC3)cc1-2 [4-(5-(2,6-difluorophenyl)-3-methyl-6H-pyrazolo[1,5-a]pyrido[3,4-f][1,3,5]triazepin-9-yl)morpholine] |
| < 50 nM | Fc1cccc(F)c1C1=Nc2ccnn2-c2cc(N3CCOCC3)ncc2N1 [4-(5-(2,6-difluorophenyl)-6H-pyrazolo[1,5-a]pyrido[3,4-f][1,3,5]triazepin-9-yl)morpholine] |
| < 50 nM | Fc1cccc(F)c1C1=Nc2c(Cl)cnn2-c2cc(N3CCCOCC3)ccc2N1 [4-[3-chloro-5-(2,6-difluorophenyl)-6H-pyrazolo[1,5-a][1,3,5]benzotriazepin-9-yl]-1,4-oxazepane] |
| < 50 nM | CC1CN(c2ccc3c(c2)-n2ncc(Cl)c2N=C(c2c(F)cccc2F)N3)CC(C)O1 (centres unmarked) [4-[3-chloro-5-(2,6-difluorophenyl)-6H-pyrazolo[1,5-a][1,3,5]benzotriazepin-9-yl]-2,6-dimethyl-morpholine] |
| < 50 nM | Fc1cccc(F)c1C1=Nc2c(Cl)cnn2-c2cc(N3CCOCC3)ccc2N1 [4-[3-chloro-5-(2,6-difluorophenyl)-6H-pyrazolo[1,5-a][1,3,5]benzotriazepin-9-yl]morpholine] |
| < 50 nM | Fc1cccc(Cl)c1C1=Nc2c(Cl)cnn2-c2cc(N3CCOCC3)ccc2N1 [4-[3-chloro-5-(2-chloro-6-fluoro-phenyl)-6H-pyrazolo[1,5-a][1,3,5]benzotriazepin-9-yl]morpholine] |
| > 200 nM | Fc1cccc(N2CCOCC2)c1C1=Nc2c(Cl)cnn2-c2cc(N3CCOCC3)ccc2N1 [4-[3-chloro-5-(2-fluoro-6-morpholino-phenyl)-6H-pyrazolo[1,5-a][1,3,5]benzotriazepin-9-yl]morpholine] |
| < 50 nM | Fc1cccc(F)c1C1=Nc2ccnn2-c2cc(N3CCOCC3)ccc2N1 [4-[5-(2,6-difluorophenyl)-6H-pyrazolo[1,5-a][1,3,5]benzotriazepin-9-yl]morpholine] |
| < 50 nM | N#Cc1cnn2c1N=C(c1c(F)cccc1F)Nc1cnc(N3CCOCC3)cc1-2 [5-(2,6-difluorophenyl)-9-morpholino-6H-pyrazolo[1,5-a]pyrido[3,4-f][1,3,5]triazepine-3-carbonitrile] |

| IC50 | SMILES |
| --- | --- |
| < 50 nM | O=C(NCCF)c1cnc2c(c1)-n1ncc(Cl)c1N=C(c1c(F)cccc1F)N2 [5-chloro-8-(2,6-difluorophenyl)-N-(2-fluoroethyl)-2,3,7,9,11-pentazatricyclo[8.4.0.02,6]tetradeca-1(10),3,5,7,11,13-hexaene-13-carboxamide] |
| < 50 nM | Fc1cccc(F)c1C1=Nc2c(Cl)cnn2-c2cc(N3CC4(COC4)C3)ccc2N1 [6-[3-chloro-5-(2,6-difluorophenyl)-6H-pyrazolo[1,5-a][1,3,5]benzotriazepin-9-yl]-2-oxa-6-azaspiro[3.3]heptane] |
| < 50 nM | Fc1cccc(F)c1C1=Nc2c(Cl)cnn2-c2cc(N3C4COCC3C4)ccc2N1 [6-[3-chloro-5-(2,6-difluorophenyl)-6H-pyrazolo[1,5-a][1,3,5]benzotriazepin-9-yl]-3-oxa-6-azabicyclo[3.1.1]heptane] |
| < 50 nM | Fc1cccc(F)c1C1=Nc2c(Cl)cnn2-c2cc(N3CCC4(CC3)COC4)ccc2N1 [7-[3-chloro-5-(2,6-difluorophenyl)-6H-pyrazolo[1,5-a][1,3,5]benzotriazepin-9-yl]-2-oxa-7-azaspiro[3.5]nonane] |
| < 50 nM | Fc1cccc(F)c1C1=Nc2c(Cl)cnn2-c2cc(N3C4CCC3COC4)ccc2N1 [8-[3-chloro-5-(2,6-difluorophenyl)-6H-pyrazolo [1,5-a][1,3, 5]benzotriazepin-9-yl]-3-oxa-8-azabicyclo [3.2.1]octane] |
| < 50 nM | Fc1cccc(F)c1C1=Nc2c(Cl)cnn2-c2cc(Br)ccc2N1 [9-bromo-3-chloro-5-(2,6-difluorophenyl)-6H-pyrazolo[1,5-a][1,3,5]benzotriazepine] |
| < 50 nM | Fc1cccc(F)c1C1=Nc2c(Cl)cnn2-c2cc(N3C[C@H]4C[C@@H]3CO4)ccc2N1 [(1R,4R)-5-[3-chloro-5-(2,6-difluorophenyl)-6H-pyrazolo[1,5-a][1,3,5]benzotriazepin-9-yl]-2-oxa-5-azabicyclo[2.2.1]heptane] |
| < 50 nM | Fc1cccc(F)c1C1=Nc2c(Cl)cnn2-c2cc(N3C[C@H]4CC[C@@H]3CO4)ccc2N1 [(1R,4R)-5-[3-chloro-5-(2,6-difluorophenyl)-6H-pyrazolo[1,5-a][1,3,5]benzotriazepin-9-yl]-2-oxa-5-azabicyclo[2.2.2]octane] |
| < 50 nM | Fc1cccc(F)c1C1=Nc2c(Cl)cnn2-c2cc(N3C[C@H]4C[C@@H]3CO4)ncc2N1 [(1R,4R)-5-[5-chloro-8-(2,6-difluorophenyl)-2,3,7,9,12-pentazatricyclo[8.4.0.02,6]tetradeca-1(10),3,5,7,11,13-hexaen-13-yl]-2-oxa-5-azabicyclo[2.2.1]heptane] |
| < 50 nM | Fc1cccc(F)c1C1=Nc2c(Cl)cnn2-c2cc(N3C[C@H]4CC[C@@H](C3)O4)ccc2N1 [(1R,5S)-3-[3-chloro-5-(2,6-difluorophenyl)-6H-pyrazolo[1,5-a][1,3,5]benzotriazepin-9-yl]-8-oxa-3-azabicyclo[3.2.1]octane] |
| < 50 nM | Fc1cccc(F)c1C1=Nc2c(Cl)cnn2-c2cc(N3C[C@@H]4C[C@H]3CO4)ccc2N1 [(1S,4S)-5-[3-chloro-5-(2,6-difluorophenyl)-6H-pyrazolo[1,5-a][1,3,5]benzotriazepin-9-yl]-2-oxa-5-azabicyclo[2.2.1]heptane] |
| < 50 nM | C[C@@H]1CN(c2ccc3c(c2)-n2ncc(Cl)c2N=C(c2c(F)cccc2F)N3)C[C@@H](C)O1 [(2R,6R)-4-(3-chloro-5-(2,6-difluorophenyl)-6H-benzo[f]pyrazolo[1,5-a][1,3,5]triazepin-9-yl)-2,6-dimethylmorpholine] |
| 50 to 200 nM | C[C@@H]1CN(c2ccc3c(c2)-n2ncc(Cl)c2N=C(c2c(F)cccc2F)N3)C[C@H](C)O1 [(2R,6S)-4-(3-chloro-5-(2,6-difluorophenyl)-6H-benzo[f]pyrazolo[1,5-a][1,3,5]triazepin-9-yl)-2,6-dimethylmorpholine] |
| < 50 nM | C[C@H]1CN(c2ccc3c(c2)-n2ncc(Cl)c2N=C(c2c(F)cccc2F)N3)C[C@H](C)O1 [(2S,6S)-4-(3-chloro-5-(2,6-difluorophenyl)-6H-benzo[f]pyrazolo[1,5-a][1,3,5]triazepin-9-yl)-2,6-dimethylmorpholine] |
| 50 to 200 nM | C[C@H]1CN(c2cc3c(cn2)NC(c2c(F)cccc2F)=Nc2c(F)cnn2-3)C[C@H](C)O1 [(2S,6S)-4-(5-(2,6-difluorophenyl)-3-fluoro-6H-pyrazolo[1,5-a]pyrido[3,4-f][1,3,5]triazepin-9-yl)-2,6-dimethylmorpholine] |
| < 50 nM | C[C@H]1CN(c2cc3c(cn2)NC(c2c(F)cccc2F)=Nc2ccnn2-3)C[C@H](C)O1 [(2S,6S)-4-(5-(2,6-difluorophenyl)-6H-pyrazolo[1,5-a]pyrido[3,4-f][1,3,5]triazepin-9-yl)-2,6-dimethylmorpholine] |
